According to patent US6403112B2, “Ectoin and ectoin derivatives as moisturizers in cosmetics” (Merck Patent Gesellschaft mit beschrankter, priority 1993, dated 2002):

Experiment: Water absorption capacity at 65% relative atmospheric humidity
Format: physicochemical
Conditions: relative atmospheric humidity of 65%; 1 g of anhydrous substance kept in sealed chamber until weight is constant
Procedure: A) Water absorption capacity The water absorption capacity of the compound of Example 1 is determined at a relative atmospheric humidity of 65%. The control substances used are in each case glycerol and propylene glycol. In each case 1 g of the anhydrous substance is kept in a sealed chamber until the weight is constant. The water absorption capacity is calculated as follows: [formula] Ectoin has a water absorption of 25% and, in comparison with glycerol or propylene glycol (60 and 45%, respectively) a less pronounced hygroscopic behavior. However, with regard to its use as a moisturizer, the dehydrating effect known from unduly high glycerol concentrations can be ruled out.

| water absorption [%] | SMILES |
| --- | --- |
| 25 | CC1=N[C@H](C(=O)O)CCN1 [Ectoin, (S)-1,4,5,6-tetrahydro-2-methyl-4-pyrimidinecarboxylic acid] |
| 60 | OCC(O)CO [glycerol] |
| 45 | CC(O)CO (stereo not drawn) [propylene glycol] |
